Reference: US6617117B1, “MAP kinases: polypeptides, polynucleotides and uses thereof” (Medical Research Council, priority 1996, dated 2003)

Legend:
MAPKAP-K3 = settings: every mammalian cell so far examined; cited from earlier work
SAPK3 (GST-SAPK3) = target: T1, SAPK3 (GST-SAPK3) (Rattus norvegicus, UniProt Q63538); test: Effect of SB 203580 on SKK3-activated SAPK3 (FIG. 19); type: biochemical; settings: even at a concentration of 0.1 mM; activated in vitro with purified SKK3
T1 construct: made in house; host or cells: E. coli BL21 (DE3)
T1 sequence (Q63538 1-367): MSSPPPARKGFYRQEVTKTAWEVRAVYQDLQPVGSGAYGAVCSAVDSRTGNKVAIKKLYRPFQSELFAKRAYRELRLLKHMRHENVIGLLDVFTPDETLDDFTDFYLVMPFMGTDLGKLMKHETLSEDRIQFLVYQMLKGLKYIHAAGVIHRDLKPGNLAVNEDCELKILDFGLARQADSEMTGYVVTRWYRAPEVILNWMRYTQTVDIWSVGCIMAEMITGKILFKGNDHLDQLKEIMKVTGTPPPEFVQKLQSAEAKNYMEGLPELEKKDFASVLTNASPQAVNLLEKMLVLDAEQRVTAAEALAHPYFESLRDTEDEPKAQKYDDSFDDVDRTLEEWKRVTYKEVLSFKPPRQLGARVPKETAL
Protocol: (§1) Protein kinase assays. SAPK3 was assayed routinely by the phosphorylation of MBP. SAPK3 (0.5 or 1 μM) in 40 μl of 25 mM Tris/HCl pH 7.5, 0.1 mM EGTA, 0.1 mM sodium orthovanadate, 1 μM PKI and 0.33 mg/ml MBP was incubated for 3 min at 30° C. before initiating the reaction with 10 μl of 50 mM magnesium acetate-0.5 mM [γ-^32P]ATP. After 20 min at 30° C. 40 μl aliquots were withdrawn, spotted on to 1.5×1.5 cm squares of Whatman P81 phosphocellulose paper and immersed in 75 mM phosphoric acid. After washing and drying the papers (Alessi et al, 1995b), ^32P radioactivity incorporated into MBP was measured. One unit of activity was that amount of enzyme which incorporated 1 nmol of phosphate into MBP in 1 min.

SAPK4 = target: T2, SAPK4 (Homo sapiens, UniProt O15264); test: Inhibition of SAPK4, MBP phosphorylation (FIG. 9); type: biochemical; parameters: made in house; host or cells: E. coli BL21(DE3)
T2 sequence (O15264 1-365): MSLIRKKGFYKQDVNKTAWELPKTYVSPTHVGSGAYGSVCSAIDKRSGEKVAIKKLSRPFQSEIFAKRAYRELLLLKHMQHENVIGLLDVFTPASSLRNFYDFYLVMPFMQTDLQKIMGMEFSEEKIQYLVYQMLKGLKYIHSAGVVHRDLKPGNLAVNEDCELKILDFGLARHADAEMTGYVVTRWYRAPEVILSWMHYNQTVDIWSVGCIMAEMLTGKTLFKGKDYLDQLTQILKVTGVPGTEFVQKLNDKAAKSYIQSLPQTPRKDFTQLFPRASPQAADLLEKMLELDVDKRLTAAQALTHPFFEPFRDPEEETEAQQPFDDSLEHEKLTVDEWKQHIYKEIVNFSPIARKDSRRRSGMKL
Protocol: SAPK4 is assayed routinely by the phosphorylation of MBP. […] After washing and drying the papers (Alessi et al, 1995 Meth. Enzymol. 255, 279-290) ^32P radioactivity incorporated into MBP is measured.

human SAPK3 = target: T3, human SAPK3 (Homo sapiens, UniProt P53778); test: Inhibition of SAPK3, MBP phosphorylation (FIG. 9); type: biochemical
T3 construct: made in house; host or cells: E. coli BL21(DE3)
T3 sequence (P53778 1-367): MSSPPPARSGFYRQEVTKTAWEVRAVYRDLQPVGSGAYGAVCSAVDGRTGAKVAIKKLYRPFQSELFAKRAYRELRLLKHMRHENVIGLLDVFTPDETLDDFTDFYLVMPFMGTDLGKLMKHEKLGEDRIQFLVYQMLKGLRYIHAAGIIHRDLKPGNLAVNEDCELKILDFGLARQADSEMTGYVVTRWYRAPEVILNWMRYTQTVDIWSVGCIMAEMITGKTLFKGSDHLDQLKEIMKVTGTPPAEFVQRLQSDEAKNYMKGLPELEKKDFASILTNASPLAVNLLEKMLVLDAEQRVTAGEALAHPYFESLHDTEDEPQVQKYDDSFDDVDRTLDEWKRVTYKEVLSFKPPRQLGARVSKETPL
Protocol: SAPK4, SAPK2a and SAPK2b were assayed routinely by the phosphorylation of MBP, exactly as described for SAPK3 in Example 4 and Cuenda et al, 1997. One unit of activity was that amount of enzyme which incorporated 1 nmol of phosphate into MBP in 1 min. SAPK4 activators were assayed by their ability to activate GST-SAPK4, as described for GST-SAPK3 in Example 4 and Cuenda et al, 1997. Control experiments were carried out in which GST-SAPK4 was omitted. One unit of SAPK4 activator was that amount which increased SAPK4 activity by I U/min. […] SAPK2a activators were assayed by their ability to activate the X. laevis homologue of SAPK2a (Meier et al, 1996). Activated SAPK2a itself was measured by the activation of GST-MAPKAP-K2(46400).
as §1

[1] = dephosphorylated form, <0.1% of the activity of the phosphorylated form, data not shown

In the case of `C[S+]([O-])c1ccc(-c2nc(-c3ccncc3)c(-c3ccc(F)cc3)[nH]2)cc1` (stereo not drawn) [SB 203580], the “Suppression of stress- and cytokine-induced activation of MAPKAP-K3” value (MAPKAP-K3) is listed as 80-95%, the “Inhibition of SAPK3” value (SAPK3 (GST-SAPK3)) is listed as “not inhibited significantly” and the “Inhibition of SAPK4” value (SAPK4; bacterially expressed SAPK4 activated by SKK3 in vitro) is listed as “not inhibited”. The “Inhibition of dephosphorylated form of SAPK4” value (SAPK4; [1]) was “failed to inhibit”, the “Inhibition of SAPK3” value (human SAPK3; SAPK3 activated by SKK3 in vitro) was “not inhibited” and the “Inhibition of dephosphorylated form of SAPK3” value (human SAPK3; [1]) was “failed to inhibit”.
